Test results from article PMC6494879, “Drug resistance emergence in macaques administered cabotegravir long-acting for pre-exposure prophylaxis during acute SHIV infection” (Nature Communications, 2019).

Legend:
[1] = system: SIV integrase E92Q (SIV IN RTV pseudovirus); format: cell-based; conditions: E92Q SIV integrase mutant
[2] = system: SIV integrase E92G (SIV IN RTV pseudovirus)
[3] = system: SIV integrase A122T (SIV IN RTV pseudovirus); assay: organism not typed; format: cell-based; conditions: for EC50: HEK293
[4] = system: SIV integrase G118R/A122T (SIV IN RTV pseudovirus); format: cell-based; conditions: G118R/A122T SIV integrase mutant
[5] = system: SIV integrase G140R (SIV IN RTV pseudovirus); assay: organism not typed; format: cell-based; conditions: for EC50: HEK293
[6] = system: SIV integrase I250V (SIV IN RTV pseudovirus); assay: organism not typed; format: cell-based; conditions: for EC50: HEK293
[7] = system: SIV integrase WT (SIV IN RTV pseudovirus); assay: organism not typed; format: cell-based; conditions: for EC50: HEK293; for fold-change relative to wild type integrase: WT SIV integrase
[8] = system: SIV integrase E92Q/G140R (SIV IN RTV pseudovirus); format: cell-based; conditions: E92Q/G140R SIV integrase mutant
[9] = system: SIV integrase I110V (SIV IN RTV pseudovirus); assay: organism not typed; format: cell-based; conditions: for EC50: HEK293
[10] = system: SIV integrase I72T (SIV IN RTV pseudovirus); assay: organism not typed; format: cell-based; conditions: for EC50: HEK293
[11] = system: SIV integrase Q124R (SIV IN RTV pseudovirus); assay: organism not typed; format: cell-based; conditions: for EC50: HEK293
[12] = system: SIV integrase G118R (SIV IN RTV pseudovirus); format: cell-based; conditions: G118R SIV integrase mutant
[13] = system: HIV integrase G140S/A/C; conditions: cited from earlier work

Structure (SMILES) | fold-change relative to wild type integrase [1] [fold] | EC50 [2] [nM] | fold-change relative to wild type integrase [2] [fold] | EC50 [3] [nM] | fold-change relative to wild type integrase [3] [fold] | fold-change relative to wild type integrase [4] | EC50 [5] [nM] | fold-change relative to wild type integrase [5] | EC50 [6] [nM] | fold-change relative to wild type integrase [6] [fold] | EC50 [7] [nM] | fold-change relative to wild type integrase [7] [fold] | fold-change relative to wild type integrase [8] | EC50 [9] [nM] | fold-change relative to wild type integrase [9] [fold] | EC50 [10] [nM] | fold-change relative to wild type integrase [10] [fold] | EC50 [11] [nM] | fold-change relative to wild type integrase [11] [fold] | fold-change relative to wild type integrase [12] | other results
O=C(NCc1c(F)cc(F)cc1F)c1cn2c(c(O)c1=O)C(=O)N1[C@H]3CC[C@H](C3)O[C@@H]1C2 [BIC, bictegravir] | 2.0 | 4.29 | 4.3 | 2.1 | 2.1 | >1000 (>1000) fold | > 1000 | >1000 (>1000) fold | 1.56 | 1.6 | 1 | 1 | >1000 (>1000) fold | 1.78 | 1.8 | 1.51 | 1.5 | 1.49 | 1.5 | >1000 (>1000) fold | 
C[C@@H]1CCO[C@H]2Cn3cc(C(=O)NCc4ccc(F)cc4F)c(=O)c(O)c3C(=O)N12 [DTG, dolutegravir] | 1.5 | 2.78 | 2.8 | 1.42 | 1.4 | >1000 (>1000) fold | > 1000 | >1000 (>1000) fold | 0.92 | 0.9 | 1 | 1 | >1000 (>1000) fold | 1.52 | 1.5 | 1.14 | 1.1 | 1.62 | 1.6 | >1000 (>1000) fold | fold reduced susceptibility of HIV with G140S/A/C [13]: 10-100 fold
O=C1Nc2ccc(Cl)cc2[C@@](C#CC2CC2)(C(F)(F)F)O1 [EFV, efavirenz] | 0.8 | 1.01 | 1.5 | 0.77 | 1.2 | 1.1 fold | 0.59 | 0.9 fold | 0.67 | 1.0 | 0.67 | 1 | 1.9 fold | 0.79 | 1.2 | 0.6 | 0.9 | 0.7 | 1.0 | 1.5 fold | 
COc1cc2c(cc1Cc1cccc(Cl)c1F)c(=O)c(C(=O)O)cn2[C@H](CO)C(C)C [EVG, elvitegravir] | 7.8 | 4.53 | 3.7 | 1.15 | 0.9 | > 807 fold | > 1000 | > 807 fold | 1.45 | 1.2 | 1.24 | 1 | > 807 fold | 1.55 | 1.3 | 1.17 | 0.9 | 1.59 | 1.3 | > 807 fold | fold reduced susceptibility of HIV with G140S/A/C [13]: 10-100 fold
Cc1nnc(C(=O)NC(C)(C)c2nc(C(=O)NCc3ccc(F)cc3)c(O)c(=O)n2C)o1 [RAL, raltegravir] | 3.6 | 8.07 | 2.8 | 4.13 | 1.4 | > 345 fold | > 1000 | > 345 fold | 4 | 1.4 | 2.9 | 1 | > 345 fold | 3.8 | 1.3 | 2.73 | 0.9 | 4.6 | 1.6 | > 345 fold | fold reduced susceptibility of HIV with G140S/A/C [13]: 10-100 fold
